Results as given in patent US9464075B2 (priority 2008, dated 2016).

How the values were obtained:
[1] = molecular target: A/M2-L26F (Influenza A virus, UniProt P0DOF5, L26F); type: cell-based, Influenza virus A/Udorn/72
[2] = molecular target: T1, A/M2-V27A (Influenza A virus, UniProt P0DOF5, V27A); type: cell-based, Influenza virus A/Udorn/72
[3] = molecular target: A/M2-V27G (Influenza A virus, UniProt P0DOF5, V27G); type: cell-based, Influenza virus A/Udorn/72
[4] = molecular target: A/M2-A30T (Influenza A virus, UniProt P0DOF5, A30T); type: cell-based, Influenza virus A/Udorn/72
[5] = molecular target: A/M2-S31N (Influenza A virus, UniProt P0DOF5, S31N); type: cell-based, Influenza virus A/Udorn/72
[6] = molecular target: A/M2-G34E (Influenza A virus, UniProt P0DOF5, G34E); type: cell-based, Influenza virus A/Udorn/72
[7] = molecular target: T1, A/M2-V27A; type: cell-based
[8] = test system: influenza virus, containing the A/M2-V27A mutation; type: cell-based

Compound	% remaining activity after application of 100 μM compound [1]	% remaining activity after application of 100 μM compound [2]	% remaining activity after application of 100 μM compound [3]	% remaining activity after application of 100 μM compound [4]	% remaining activity after application of 100 μM compound [5]	% remaining activity after application of 100 μM compound [6]	AM2 V27A % inhibition at 100 μM [7]	inhibition of plaque formation (in words) [8]	inhibition of the mutant (in words) [5]	concentration at which plaque formation was reduced [8]
CNC1CCC2(CCCCC2)CC1.Cl [Compound 9]	72.6 ± 8.4%	70.2 ± 1.55%	89.6 ± 4.1%	101. ± 3.2%	100 ± 4.1%	101.7 ± 2.8%	–	–	–	–
NC1CSC2(CCCCCC2)SC1 [Compound 34, 1,5-Dithia-spiro[5.6]dodec-3-yl-ammonium chloride]	–	–	–	–	–	–	33 (0%) 34 (46.9%)	–	–	–
NC12CC3CC(CC(C3)C1)C2 [Amantadine, reference compound]	51.8 ± 3.5%	93.07 ± 1.9%	95 ± 4.9%	104.6 ± 4.3%	65.3 ± 2.7%	100.4 ± 6.7%	–	failed to inhibit plaque formation	–	–
Cl.NNC1CCC2(CCCCC2)CC1 [Compound 31, N′-Spiro[5.5]undec-3-yl-hydrazinium chloride]	–	–	–	–	–	–	31 (7.1%)	–	–	–
Cl.NC1CCC2(CCCCC2)CC1 [Compound 8]	32.4 ± 3.3%	46.6 ± 6.6%	87.9 ± 6.1%	98.1 ± 7.0%	99.1 ± 0.9%	96. ± 5.9%	–	–	little inhibition	5 µM
C1CCC2(CC1)CCN(C1=NCCN1)CC2 [BL-1743, 3-(4,5-Dihydro-1H-imidazol-2-yl)-3-aza-spiro[5.5]undecane, reference compound]	89.2 ± 4.8%	97.4 ± 1.8%	82.9 ± 9.3%	102 ± 2.3%	100 ± 0.67%	89.8 ± 6.9%	–	failed to inhibit plaque formation	–	–
N=C(N)NC1CCC2(CCCCC2)CC1 [Compound 35]	–	–	–	–	–	–	35 (14.6%)	–	–	–
Cl.NC1CSC2(CCCCC2)SC1 [Compound 33, 1,5-Dithia-spiro[5.5]undec-3-yl-ammonium chloride]	–	–	–	–	–	–	33 (0%) 34 (46.9%)	–	–	–
